Results on 23 compounds are retold here after patent US11339171B2, “MDM2 inhibitors” (Gan & Lee Pharmaceuticals, priority 2017, dated 2022).

The target in the assay is T1, MDM2 (Homo sapiens, UniProt Q00987).
T1 construct: made in house
T1 sequence (Q00987 whole entry): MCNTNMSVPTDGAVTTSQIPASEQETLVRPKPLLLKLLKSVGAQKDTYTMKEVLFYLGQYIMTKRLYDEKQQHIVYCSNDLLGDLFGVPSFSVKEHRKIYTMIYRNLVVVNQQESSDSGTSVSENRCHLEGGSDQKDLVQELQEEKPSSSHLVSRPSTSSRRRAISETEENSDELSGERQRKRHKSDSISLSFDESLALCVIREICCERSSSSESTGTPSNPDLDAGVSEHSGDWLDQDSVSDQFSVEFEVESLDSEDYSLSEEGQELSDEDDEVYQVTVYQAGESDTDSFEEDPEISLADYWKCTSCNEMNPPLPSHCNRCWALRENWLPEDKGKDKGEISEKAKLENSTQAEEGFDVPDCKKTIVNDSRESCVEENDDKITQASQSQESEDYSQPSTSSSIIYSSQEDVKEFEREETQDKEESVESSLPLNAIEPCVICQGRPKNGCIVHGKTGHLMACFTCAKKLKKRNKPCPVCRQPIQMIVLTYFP
The assay can be described thus: Inhibition test of MDM2-P53 (GST-MDM2, Biotin-P53, Anti-GST-Tb, SA-XL665). The class given is binding. The method, boiled down:
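Binding was measured by TR-FRET with GST-MDM2 at 4 nM final in PBS with 0.1% BSA, 5 mM DTT and 1 mM AEBSF. Compounds were tested as twelve-point 5-fold dilutions and incubated with the detection mix for 90 min at 25 °C with shaking before plate-reader reading and curve fitting.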
In turn, `COc1cc(C(F)(F)F)ccc1-c1nc2c(n1C(C)C)[C@]1(C(=O)Nc3cc(Cl)ccc31)N(c1cccc(Cl)c1)C2=O` [Example R-129, (R)-6-chloro-5′-(3-chlorophenyl)-3′-isopropyl-2′-(2-methoxy-4-(trifluoromethyl)phenyl)-3′H-spiro[dihydroindole-3,4′-pyrrolo[3,4-d]imidazole]-2,6′(5′H)-dione] showed an IC50 of 149 nM. This lies in the sub-micromolar range.

As for `COc1cc(F)c(-c2nc3c(n2C(C)C)[C@]2(C(=O)Nc4cc(Cl)ccc42)N(c2cc(Cl)ccc2C)C3=O)c(OC)c1` [Example R-130, (R)-6-chloro-5′-(5-chloro-2-methylphenyl)-2′-(2-fluoro-4,6-dimethoxyphenyl)-3′-isopropyl-3′H-spiro[dihydroindole-3,4′-pyrrolo[3,4-d]imidazole]-2,6′(5′H)-dione], the half-maximal inhibitory concentration (IC50) turned out to be 568 nM.

In turn, `COc1cc(OC)c(-c2nc3c(n2C(C)C)[C@]2(C(=O)Nc4cc(Cl)ccc42)N(c2cc(Cl)cnc2C)C3=O)cn1` [Example R-131, (R)-6-chloro-5′-(5-chloro-2-methylpyridin-3-yl)-2′-(4,6-dimethoxypyridin-3-yl)-3′-isopropyl-3′H-spiro[dihydroindole-3,4′-pyrrolo[3,4-d]imidazole]-2,6′(5′H)-dione] displayed an IC50 of 120 nM.

Regarding `COc1cc(OC)c(-c2nc3c(n2C(C)C)[C@]2(C(=O)Nc4cc(Cl)ccc42)N(c2cc(Cl)ccc2F)C3=O)cn1` [Example R-133, (R)-6-chloro-5′-(5-chloro-2-fluorophenyl)-2′-(4,6-dimethoxypyridin-3-yl)-3′-isopropyl-3′H-spiro[dihydroindole-3,4′-pyrrolo[3,4-d]imidazole]-2,6′(5′H)-dione], the 50% inhibitory concentration (IC50) was determined as 1110 nM.

`CCOc1ncc(-c2nc3c(n2C(C)C)[C@]2(C(=O)Nc4cc(Cl)ccc42)N(c2cc(Cl)cnc2C)C3=O)c(OC)n1` [Example R-134, (R)-6-chloro-5′-(5-chloro-2-methylpyridin-3-yl)-2′-(2-ethoxy-4-methoxypyrimidin-5-yl)-3′-isopropyl-3′H-spiro[dihydroindole-3,4′-pyrrolo[3,4-d]imidazole]-2,6′(5′H)-dione] returned a half-maximal inhibitory concentration (IC50) of 322 nM. Compared with the last compound, the IC50 is about 3.4-fold lower.

`COc1nc(N(C)C)ncc1-c1nc2c(n1C(C)C)[C@]1(C(=O)Nc3cc(Cl)ccc31)N(c1cc(Cl)cnc1C)C2=O` [Example R-135, (R)-6-chloro-5′-(5-chloro-2-methylpyridin-3-yl)-2′-(2-(dimethylamino)-4-methoxypyrimidin-5-yl)-3′-isopropyl-3′H-spiro[dihydroindole-3,4′-pyrrolo[3,4-d]imidazole]-2,6′(5′H)-dione]: half-maximal inhibition (IC50) was put at 423 nM.

Take `COc1nc(OC(C)C)ncc1-c1nc2c(n1C(C)C)[C@]1(C(=O)Nc3cc(Cl)ccc31)N(c1cc(Cl)cnc1C)C2=O` [Example R-136, (R)-6-chloro-5′-(5-chloro-2-methylpyridin-3-yl)-2′-(2-isopropoxy-4-methoxypyrimidin-5-yl)-3′-isopropyl-3′H-spiro[dihydroindole-3,4′-pyrrolo[3,4-d]imidazole]-2,6′(5′H)-dione]: the midpoint of inhibition, the IC50, lay at 1800 nM.

With `COc1cc(OC(C)C)ncc1-c1nc2c(n1C(C)C)[C@]1(C(=O)Nc3cc(Cl)ccc31)N(c1cc(Cl)cnc1C)C2=O` [Example R-137, (R)-6-chloro-5′-(5-chloro-2-methylpyridin-3-yl)-2′-(6-isopropoxy-4-methoxypyridin-3-yl)-3′-isopropyl-3′H-spiro[dihydroindole-3,4′-pyrrolo[3,4-d]imidazole]-2,6′(5′H)-dione], the IC50 was 422 nM.

`COc1cc(C(F)(F)F)ncc1-c1nc2c(n1C(C)C)[C@]1(C(=O)Nc3cc(Cl)ccc31)N(c1cc(Cl)ccc1C)C2=O` [Example R-138, (R)-6-chloro-5′-(5-chloro-2-methylphenyl)-3′-isopropyl-2′-(4-methoxy-6-(trifluoromethyl)pyridin-3-yl)-3′H-spiro[dihydroindole-3,4′-pyrrolo[3,4-d]imidazole]-2,6′(5′H)-dione] registered a 50% inhibitory concentration (IC50) of 132 nM.

Consider `CCOc1cc(OC)c(-c2nc3c(n2C(C)C)[C@]2(C(=O)Nc4cc(Cl)ccc42)N(c2cc(F)cc(Cl)c2)C3=O)cn1` [Example R-139, (R)-6-chloro-5′-(3-chloro-5-fluorophenyl)-2′-(6-ethoxy-4-methoxypyridin-3-yl)-3′-isopropyl-3′H-spiro[dihydroindole-3,4′-pyrrolo[3,4-d]imidazole]-2,6′(5′H)-dione], for which the IC50 worked out at 342 nM. This IC50 lies about 2.6-fold higher than the previous one.

On to `COc1nc(OCC(F)(F)F)ncc1-c1nc2c(n1C(C)C)[C@]1(C(=O)Nc3cc(Cl)ccc31)N(c1cc(Cl)ccc1C)C2=O` [Example R-141, (R)-6-chloro-5′-(5-chloro-2-methylphenyl)-3′-isopropyl-2′-(4-methoxy-2-(2,2,2-trifluoroethoxy)pyrimidin-5-yl)-3′H-spiro[dihydroindole-3,4′-pyrrolo[3,4-d]imidazole]-2,6′(5′H)-dione], for which inhibition was half-maximal at 762 nM (IC50).

`COc1cc(C(F)(F)F)ncc1-c1nc2c(n1C(C)C)[C@]1(C(=O)Nc3cc(Cl)ccc31)N(c1cccc(Cl)c1)C2=O` [Example R-142, (R)-6-chloro-5′-(3-chlorophenyl)-3′-isopropyl-2′-(4-methoxy-6-(trifluoromethyl)pyridin-3-yl)-3′H-spiro[dihydroindole-3,4′-pyrrolo[3,4-d]imidazole]-2,6′(5′H)-dione] yielded an IC50 of 137 nM. Against the preceding compound, the IC50 is about 5.6-fold lower.

`COc1cc(C2CC2)ccc1-c1nc2c(n1C(C)C)[C@]1(C(=O)Nc3cc(Cl)ccc31)N(c1cc(Cl)cnc1C)C2=O` [Example R-145, (R)-6-chloro-5′-(5-chloro-2-methylpyridin-3-yl)-2′-(4-cyclopropyl-2-methoxyphenyl)-3′-isopropyl-3′H-spiro[dihydroindole-3,4′-pyrrolo[3,4-d]imidazole]-2,6′(5′H)-dione] showed a 50% inhibitory concentration (IC50) of 749 nM.

Compound `CCOc1ccc(-c2nc3c(n2C(C)C)[C@]2(C(=O)Nc4cc(Cl)ccc42)N(c2cc(Cl)ccc2C)C3=O)c(OC)n1` [Example R-146, (R)-6-chloro-5′-(5-chloro-2-methylphenyl)-2′-(6-ethoxy-2-methoxypyridin-3-yl)-3′-isopropyl-3′H-spiro[dihydroindole-3,4′-pyrrolo[3,4-d]imidazole]-2,6′(5′H)-dione] registered a half-inhibitory concentration (IC50) of 6710 nM.

`COc1cc(OCCO)ccc1-c1nc2c(n1C(C)C)[C@]1(C(=O)Nc3cc(Cl)ccc31)N(c1cc(Cl)ccc1C)C2=O` [Example R-148, (R)-6-chloro-5′-(5-chloro-2-methylphenyl)-2′-(4-(2-hydroxyethoxy)-2-methoxyphenyl)-3′-isopropyl-3′H-spiro[dihydroindole-3,4′-pyrrolo[3,4-d]imidazole]-2,6′(5′H)-dione]: the IC50 worked out at 201 nM.

In turn, `COc1nc(C(C)C)ccc1-c1nc2c(n1C(C)C)[C@]1(C(=O)Nc3cc(Cl)ccc31)N(c1cc(Cl)ccc1C)C2=O` [Example R-149, (R)-6-chloro-5′-(5-chloro-2-methylphenyl)-3′-isopropyl-2′-(6-isopropyl-2-methoxypyridin-3-yl)-3′H-spiro[dihydroindole-3,4′-pyrrolo[3,4-d]imidazole]-2,6′(5′H)-dione] gave a 50% inhibitory concentration (IC50) of 2280 nM. Against the preceding compound, the IC50 is about 11-fold higher.

`COc1ncc(-c2nc3c(n2C(C)C)[C@]2(C(=O)Nc4cc(Cl)ccc42)N(c2cc(Cl)ccc2C#N)C3=O)c(OC)n1` [Example R-151, (R)-4-chloro-2-(6-chloro-2′-(2,4-dimethoxypyrimidin-5-yl)-3′-isopropyl-2,6′-dioxo-3′,6′-dihydro-5′H-spiro[dihydroindole-3,4′-pyrrolo[3,4-d]imidazole]-5′-yl)benzonitrile]: the IC50 is 5370 nM.

The compound `COc1cc(C(F)(F)F)ncc1-c1nc2c(n1C(C)C)[C@]1(C(=O)Nc3cc(Cl)ccc31)N(c1cc(Cl)cnc1C)C2=O` [Example R-152, (R)-6-chloro-5′-(5-chloro-2-methylpyridin-3-yl)-3′-isopropyl-2′-(4-methoxy-6-(trifluoromethyl)pyridine-3-yl)-3′H-spiro[dihydroindole-3,4′-pyrrolo[3,4-d]imidazole]-2,6′(5′H)-dione] gave a concentration for half-maximal inhibition (IC50) of 134 nM.

The compound `COc1cc(OCC(F)F)ncc1-c1nc2c(n1C(C)C)[C@]1(C(=O)Nc3cc(Cl)ccc31)N(c1cc(Cl)ccc1C)C2=O` [Example R-153, (R)-6-chloro-5′-(5-chloro-2-methylphenyl)-2′-(6-(2,2-difluoroethoxy)-4-methoxypyridin-3-yl)-3′-isopropyl-3′H-spiro[dihydroindole-3,4′-pyrrolo[3,4-d]imidazole]-2,6′(5′H)-dione] registered an IC50 of 31.1 nM.

In turn, `COc1cc(C)ncc1-c1nc2c(n1C(C)C)[C@]1(C(=O)Nc3cc(Cl)ccc31)N(c1cc(Cl)ccc1C)C2=O` [Example R-154, (R)-6-chloro-5′-(5-chloro-2-methylphenyl)-3′-isopropyl-2′-(4-methoxy-6-methylpyridin-3-yl)-3′H-spiro[dihydroindole-3,4′-pyrrolo[3,4-d]imidazole]-2,6′(5′H)-dione] showed a concentration for half-maximal inhibition (IC50) of 31.1 nM. This counts as double-digit nanomolar.

On to `COc1ncc(-c2nc3c(n2C(C)C)[C@]2(C(=O)Nc4cc(Cl)ccc42)N(c2ccc(C#N)c(Cl)c2)C3=O)c(OC)n1` [Example R-158, (R)-2-chloro-4-(6-chloro-2′-(2,4-dimethoxypyrimidin-5-yl)-3′-isopropyl-2,6′-dioxo-3′,6′-dihydro-5′H-spiro[dihydroindole-3,4′-pyrrolo[3,4-d]imidazole]-5′-yl)benzonitrile], for which the half-maximal inhibitory concentration (IC50) was determined as 2200 nM. Against the preceding compound, the IC50 is about 71-fold higher.

`COc1ncc(-c2nc3c(n2C(C)C)[C@]2(C(=O)Nc4cc(Cl)ccc42)N(c2ccc(OC(F)(F)F)c(Cl)c2)C3=O)c(OC)n1` [Example R-161, (R)-6-chloro-5′-(3-chloro-4-(trifluoromethoxy)phenyl)-2′-(2,4-dimethoxypyrimidin-5-yl)-3′-isopropyl-3′H-spiro[dihydroindole-3,4′-pyrrolo[3,4-d]imidazole]-2,6′(5′H)-dione]: half-maximal inhibition (IC50) required 126 nM. This IC50 is about 17-fold lower than that of the compound before.

The compound `COc1cc(OCCF)ncc1-c1nc2c(n1C(C)C)[C@]1(C(=O)Nc3cc(Cl)ccc31)N(c1cc(Cl)ccc1C)C2=O` [Example R-163, (R)-6-chloro-5′-(5-chloro-2-methylphenyl)-2′-(6-(2-fluoroethoxy)-4-methoxypyridin-3-yl)-3′-isopropyl-3′H-spiro[dihydroindole-3,4′-pyrrolo[3,4-d]imidazole]-2,6′(5′H)-dione] returned an IC50 of 166 nM. This IC50 and that of the compound before are within 1.5-fold of each other.
